# According to US10407467B2, “Polymyxin derivatives and their use in combination therapy together with different antibiotics” (priority 2013, dated 2019):
# Counter-ions that a name gives are not always drawn. Like-named read-outs stand apart in the source and are kept apart here. Numbered stars: 1 amine (or outer) side, 2 acyl side, 3 side chain; on linkers, the order of the positions; unused ones are H or OH. Bridge positions count the residues as written; N and C are the ends. Square brackets hold non-standard residues; d marks the D form. Peptide text beside a SMILES is read from it. * marks the point of attachment. ξ: configuration not given here. NHCH2(1,3-C6H4)CH2CO = O=C(Cc1cccc(CN[*:1])c1)[*:2]; X6 = N[C@@H](CC(=O)*)c1ccc2ccccc2c1; ξβ3hGly(cHex) = NC(CC(=O)*)C1CCCCC1; X12 = CC(C)C[C@H](N)[C@H](O)C(=O)*; X22 = O=C(C[C@@H]1Cc2ccccc2CN1)*; Thr(3ξ) = CC(O)[C@H](N)C(=O)O; Dab = NCC[C@H](N)C(=O)O; X3 = O=C([C@H]1CCCNC1)*; Dap = NC[C@H](N)C(=O)O
# Tests used:
# P. aeruginosa ATCC 27853 = settings: for effect on thigh burdens: 2 mg/kg IV three times at 1, 3.5 and 6 hours post infection; for reduction of thigh burdens: 4 mg/kg IV three times at 1, 3.5 and 6 hours post infection; for Log reduction from vehicle (CFU/g): ATCC 27853, in vivo, iv, 6 h
# Klebsiella pneumoniae [1] = assay: MIC, sole activity (no second agent); format: cell-based; settings: in the absence of Rifampicin; for MIC K. pneumoniae ATCC-BAA2146: strain ATCC-BAA2146; for MIC K. pneumoniae CCUG-59348: strain CCUG-59348
# Method in brief: (§1)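 First, isolated colonies grown 18-24 hours on Mueller-Hinton agar were suspended to 0.5 McFarland; next, up to four strains per pathogen were tested in duplicate in cation-adjusted MHB; finally, the lower concordant value or modal repeat value was reported against Polymyxin B.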
# Escherichia coli [2] = assay: MIC, sole activity (no second agent); format: cell-based; settings: in the absence of Rifampicin; for MIC E. coli ATCC25922: strain ATCC25922; for MIC E. coli NCTC9001: strain NCTC9001
# Method in brief: as §1
# Pseudomonas aeruginosa [3] = assay: MIC, sole activity (no second agent); format: cell-based; settings: in the absence of Rifampicin; for MIC P. aeruginosa ATCC 27853: strain ATCC27853; for MIC P. aeruginosa ATCC-47: strain ATCC-47; for MIC P. aeruginosa ATCCCRM-9027: strain ATCCCRM-9027; for MIC P. aeruginosa CCUG 59626: strain CCUG 59626
# Method in brief: as §1
# Acinetobacter baumannii [4] = assay: MIC, sole activity (no second agent); format: cell-based; settings: in the absence of Rifampicin; for MIC A. baumannii ATCC13424: strain ATCC13424; for MIC A. baumannii ATCCBAA-747: strain ATCCBAA-747; for MIC A. baumannii CCUG57249: strain CCUG 57249
# Method in brief: as §1
# Klebsiella pneumoniae [5] = assay: MIC, compound in combination with a second agent (broth microdilution); format: cell-based; settings: 1:1 (wt:wt) combination with Rifampicin, MIC = total drug concentration; for MIC K. pneumoniae ATCC-BAA-2146: strain ATCC-BAA-2146
# Method in brief: (§2)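 MIC = combined concentration of test compound plus partner agent, mixed at equal mass (1:1 w/w, salt form as used). Up to four strains per species; colonies adjusted to 0.5 McFarland. Run in duplicate; >2-fold disagreement invalidates the run.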
# Escherichia coli [6] = assay: as above; format: cell-based; settings: 1:1 (wt:wt) combination with Rifampicin, MIC = total drug concentration; for MIC E. coli ATCC25922: strain ATCC25922
# Method in brief: as §2
# Pseudomonas aeruginosa [7] = assay: as above; format: cell-based; settings: 1:1 (wt:wt) combination with Rifampicin, MIC = total drug concentration; for MIC P. aeruginosa ATCC 27853: strain ATCC 27853; for MIC P. aeruginosa ATCC CRM-9027: strain ATCC CRM-9027; for MIC P. aeruginosa ATCC-47: strain ATCC-47; for MIC P. aeruginosa CCUG 59626: strain CCUG 59626
# Method in brief: as §2
# Acinetobacter baumannii [8] = assay: as above; format: cell-based; settings: 1:1 (wt:wt) combination with Rifampicin, MIC = total drug concentration; for MIC A. baumannii ATCC BAA-747: strain ATCC BAA-747; for MIC A. baumannii CCUG57249: strain CCUG57249; for MIC A. baumannii NCTC 13424: strain NCTC 13424
# Method in brief: as §2
# HK-2 cell line = assay: In vitro renal cell toxicity assay (resazurin reduction); format: cell-based, human
smiles,measurement,setting,value
"CC(C)C[C@@H]1NC(=O)[C@@H](Cc2ccccc2)NC(=O)[C@H](CCN)NC(=O)[C@@H](NC(=O)[C@H](CCN)NC(=O)[C@@H](NC(=O)C[C@H](N)c2ccc3ccccc3c2)C(C)O)CCNC(=O)[C@H](C(C)O)NC(=O)[C@H](CCN)NC(=O)[C@H](CCN)NC1=O (stereo partly drawn) [Example 38, (S)-3-Amino-3-(naphthalene-2-yl)propanoyl polymyxin B nonapeptide, trifluoroacetate salt] (X6-[Thr(3ξ)][Dab][Dab][Dab][dF]L[Dab][Dab][Thr(3ξ)]; lactam 3-C)",effect on thigh burdens,P. aeruginosa ATCC 27853,did not affect thigh burdens significantly
same,reduction of thigh burdens,P. aeruginosa ATCC 27853,4.9 Log10 CFU/g
same,Log reduction from vehicle (CFU/g),P. aeruginosa ATCC 27853; 2 mg/kg,−0.37 log CFU/g
same,Log reduction from vehicle (CFU/g),P. aeruginosa ATCC 27853; 4 mg/kg,4.94 log CFU/g
same,MIC K. pneumoniae ATCC-BAA2146,Klebsiella pneumoniae [1],8 micrograms/mL
same,MIC K. pneumoniae CCUG-59348,Klebsiella pneumoniae [1],>32 micrograms/mL
same,MIC E. coli ATCC25922,Escherichia coli [2],4 micrograms/mL
same,MIC E. coli NCTC9001,Escherichia coli [2],8 micrograms/mL
same,MIC P. aeruginosa ATCC 27853,Pseudomonas aeruginosa [3],0.25 micrograms/mL
same,MIC P. aeruginosa ATCC-47,Pseudomonas aeruginosa [3],0.25 micrograms/mL
same,MIC P. aeruginosa ATCCCRM-9027,Pseudomonas aeruginosa [3],0.25 micrograms/mL
same,MIC P. aeruginosa CCUG 59626,Pseudomonas aeruginosa [3],0.125 micrograms/mL
same,MIC A. baumannii ATCC13424,Acinetobacter baumannii [4],1 micrograms/mL
same,MIC A. baumannii ATCCBAA-747,Acinetobacter baumannii [4],0.5 micrograms/mL
same,MIC A. baumannii CCUG57249,Acinetobacter baumannii [4],4 micrograms/mL
same,MIC K. pneumoniae ATCC-BAA-2146,Klebsiella pneumoniae [5],0.5 micrograms/mL
same,MIC K. pneumoniae CCUG-59348,Klebsiella pneumoniae [5]; strain CCUG-59348,2 micrograms/mL
same,MIC E. coli ATCC25922,Escherichia coli [6],0.5 micrograms/mL
same,MIC P. aeruginosa ATCC 27853,Pseudomonas aeruginosa [7],0.25 micrograms/mL
same,MIC P. aeruginosa ATCC CRM-9027,Pseudomonas aeruginosa [7],0.5 micrograms/mL
same,MIC P. aeruginosa ATCC-47,Pseudomonas aeruginosa [7],0.25 micrograms/mL
same,MIC P. aeruginosa CCUG 59626,Pseudomonas aeruginosa [7],0.5 micrograms/mL
same,MIC A. baumannii ATCC BAA-747,Acinetobacter baumannii [8],0.25 micrograms/mL
same,MIC A. baumannii CCUG57249,Acinetobacter baumannii [8],0.25 micrograms/mL
same,MIC A. baumannii NCTC 13424,Acinetobacter baumannii [8],0.25 micrograms/mL
"CC(C)C[C@@H]1NC(=O)[C@@H](Cc2ccccc2)NC(=O)[C@H](CCN)NC(=O)[C@@H](NC(=O)[C@H](CN)NC(=O)[C@@H](NC(=O)CC(N)C2CCCCC2)C(C)O)CCNC(=O)[C@H](C(C)O)NC(=O)[C@H](CCN)NC(=O)[C@H](CCN)NC1=O (stereo partly drawn) [Example 47, [3-Amino-3-cyclohexyl-propionyl]-L-Thr-L-Dap-polymyxin B heptapeptide, TFA salt] ({ξβ3hGly(cHex)}-[Thr(3ξ)][Dap][Dab][Dab][dF]L[Dab][Dab][Thr(3ξ)]; lactam 3-C)",effect on thigh burdens,P. aeruginosa ATCC 27853,did not affect thigh burdens significantly
same,reduction of thigh burdens,P. aeruginosa ATCC 27853,1.1 Log10 CFU/g
same,Log reduction from vehicle (CFU/g),P. aeruginosa ATCC 27853; 2 mg/kg,−0.09 log CFU/g
same,Log reduction from vehicle (CFU/g),P. aeruginosa ATCC 27853; 4 mg/kg,1.07 log CFU/g
same,MIC K. pneumoniae ATCC 4352,Klebsiella pneumoniae [1]; strain ATCC 4352,0.5 micrograms/mL
same,MIC K. pneumoniae ATCC-BAA2146,Klebsiella pneumoniae [1],0.5 micrograms/mL
same,MIC K. pneumoniae CCUG-59348,Klebsiella pneumoniae [1],>32 micrograms/mL
same,MIC E. coli ATCC25922,Escherichia coli [2],4 micrograms/mL
same,MIC E. coli NCTC9001,Escherichia coli [2],4 micrograms/mL
same,MIC P. aeruginosa ATCC 27853,Pseudomonas aeruginosa [3],≤0.06 micrograms/mL
same,MIC P. aeruginosa ATCC-47,Pseudomonas aeruginosa [3],0.25 micrograms/mL
same,MIC P. aeruginosa ATCCCRM-9027,Pseudomonas aeruginosa [3],≤0.06 micrograms/mL
same,MIC P. aeruginosa CCUG 59626,Pseudomonas aeruginosa [3],0.125 micrograms/mL
same,MIC A. baumannii ATCC13424,Acinetobacter baumannii [4],1 micrograms/mL
same,MIC A. baumannii ATCCBAA-747,Acinetobacter baumannii [4],0.5 micrograms/mL
same,MIC A. baumannii CCUG57249,Acinetobacter baumannii [4],0.25 micrograms/mL
same,MIC A. baumannii NCTC 13423,Acinetobacter baumannii [4]; strain NCTC13423,0.5 micrograms/mL
same,MIC K. pneumoniae ATCC 4352,Klebsiella pneumoniae [5]; strain ATCC 4352,0.125 micrograms/mL
same,MIC K. pneumoniae ATCC-BAA-2146,Klebsiella pneumoniae [5],0.25 micrograms/mL
same,MIC E. coli ATCC25922,Escherichia coli [6],≤0.06 micrograms/mL
same,MIC E. coli NCTC9001,Escherichia coli [6]; strain NCTC9001,0.125 micrograms/mL
same,MIC P. aeruginosa ATCC 27853,Pseudomonas aeruginosa [7],0.125 micrograms/mL
same,MIC P. aeruginosa ATCC CRM-9027,Pseudomonas aeruginosa [7],0.125 micrograms/mL
same,MIC P. aeruginosa ATCC-47,Pseudomonas aeruginosa [7],0.125 micrograms/mL
same,MIC P. aeruginosa CCUG 59626,Pseudomonas aeruginosa [7],0.125 micrograms/mL
same,MIC A. baumannii ATCC BAA-747,Acinetobacter baumannii [8],≤0.06 micrograms/mL
same,MIC A. baumannii CCUG57249,Acinetobacter baumannii [8],≤0.06 micrograms/mL
same,MIC A. baumannii NCTC 13423,Acinetobacter baumannii [8]; strain NCTC 13423,0.125 micrograms/mL
same,MIC A. baumannii NCTC 13424,Acinetobacter baumannii [8],0.125 micrograms/mL
"CC(C)C[C@@H]1NC(=O)[C@@H](Cc2ccccc2)NC(=O)[C@H](CCN)NC(=O)[C@@H](NC(=O)[C@H](CCN)NC(=O)[C@@H](NC(=O)Cc2cccc(CN)c2)C(C)O)CCNC(=O)[C@H](C(C)O)NC(=O)[C@H](CCN)NC(=O)[C@H](CCN)NC1=O (some centres unmarked) [Example A1, 2-(3-(Aminomethyl)phenyl) ethanoyl polymyxin B nonapeptide] ({NHCH2(1,3-C6H4)CH2CO}-[Thr(3ξ)][Dab][Dab][Dab][dF]L[Dab][Dab][Thr(3ξ)]; lactam 3-C)",HK-2 IC50 rel to PMB,HK-2 cell line,8
"CC(C)C[C@@H]1NC(=O)[C@@H](Cc2ccccc2)NC(=O)[C@H](CCN)NC(=O)[C@@H](NC(=O)[C@H](CCN)NC(=O)[C@@H](NC(=O)[C@H](CN)NC(=O)CC(N)C2CCCCC2)C(C)O)CCNC(=O)[C@H](C(C)O)NC(=O)[C@H](CCN)NC(=O)[C@H](CCN)NC1=O (stereo partly drawn) [Example A6, [3(R,S)-3-Amino-3-cyclohexanepropanoyl]-L-Dap-polymyxin B nonapeptide] ({ξβ3hGly(cHex)}-[Dap][Thr(3ξ)][Dab][Dab][Dab][dF]L[Dab][Dab][Thr(3ξ)]; lactam 4-C)",HK-2 IC50 rel to PMB,HK-2 cell line,3
"CC(C)C[C@@H]1NC(=O)[C@@H](Cc2ccccc2)NC(=O)[C@H](CCN)NC(=O)[C@@H](NC(=O)[C@H](CN)NC(=O)[C@@H](NC(=O)[C@H](CCN)NC(=O)[C@H]2CCCNC2)C(C)O)CCNC(=O)[C@H](C(C)O)NC(=O)[C@H](CCN)NC(=O)[C@H](CCN)NC1=O (stereo partly drawn) [Example A13, [(3S)-piperidine-3-carbonyl]-L-Dab-L-Thr-L-Dap polymyxin B heptapeptide] (X3-[Dab][Thr(3ξ)][Dap][Dab][Dab][dF]L[Dab][Dab][Thr(3ξ)]; lactam 4-C)",HK-2 IC50 rel to PMB,HK-2 cell line,10
"CC(C)C[C@@H]1NC(=O)[C@@H](Cc2ccccc2)NC(=O)[C@H](CCN)NC(=O)[C@@H](NC(=O)[C@H](CCN)NC(=O)[C@@H](NC(=O)C[C@@H]2Cc3ccccc3CN2)C(C)O)CCNC(=O)[C@H](C(C)O)NC(=O)[C@H](CCN)NC(=O)[C@H](CCN)NC1=O (stereo partly drawn) [Example A14, (S)-2-((1,2,3,4)-tetrahydroisoquinolin-3-yl) ethanoyl polymyxin B nonapeptide] (X22-[Thr(3ξ)][Dab][Dab][Dab][dF]L[Dab][Dab][Thr(3ξ)]; lactam 3-C)",HK-2 IC50 rel to PMB,HK-2 cell line,5.3
"CC(C)C[C@@H]1NC(=O)[C@@H](Cc2ccccc2)NC(=O)[C@H](CCN)NC(=O)[C@@H](NC(=O)[C@H](CN)NC(=O)[C@@H](NC(=O)[C@H](CCN)NC(=O)[C@@H](O)[C@@H](N)CC(C)C)C(C)O)CCNC(=O)[C@H](C(C)O)NC(=O)[C@H](CCN)NC(=O)[C@H](CCN)NC1=O (stereo partly drawn) [Example A17, [(2S,3S)-3-Amino-2-hydroxy-5-methylhexanoyl]-L-Dab-L-Thr-L-Dap polymyxin B heptapeptide] (X12-[Dab][Thr(3ξ)][Dap][Dab][Dab][dF]L[Dab][Dab][Thr(3ξ)]; lactam 4-C)",HK-2 IC50 rel to PMB,HK-2 cell line,5.5
